Experimental data from patent US20250152688A1 (priority 2021, published 2025).
“Also recorded” adds a separate entry of the source. Like-named read-outs stand apart in the source and are kept apart here.

Legend:
[1] = system: transgenic HLA-A2/HLA-DR1 animals; format: in vivo, mice; settings: Group 1: MTTE-OVA then CD29 60 μg (4.1 nmol); Group 2: UV34 14 μg (4.1 nmol) in IFA; prime-boost-boost; p=0.0286
[2] = system: HLA-A2/DR1 transgenic mice; format: in vivo
[3] = system: peripheral blood mononuclear cells (PMBCs); format: cell-based, human

LSEAEVRQHREARPALLTSRLRFIPKPDGL [SEQ ID NO: 116]
Anti-MTTE antibody titers at the end of the experiment [1]: not able to mount an antibody response to the MTTE sequence
Immunogenicity in HLA-A2/DR1 transgenic mice (conclusion) ([2]; 16.4 nmol peptide with standard adjuvant): highly immunogenic
Peptides above the threshold (T cell responses against individual peptides) ([2]; 16.4 nmol peptide, female HLA-A2/DR1 mice (n=4), cut off = cells alone): UV36, UV57, UV58, UV59, UV60, UV64 and UV66
Peptide recognition by individual vaccinated mice (ELISpot) ([2]; 16.4 nmol, mice M9-M12 GV1001 group, M13-M16 UV34 group): Mouse M16 displayed marginal immune responses against UV57; also recorded: Mouse M15 responded somewhat more broadly and recognized UV58; also recorded: Cells from this mouse also responded to UV59; also recorded: Peptide UV60 was also recognized; also recorded: They both recognized UV36, UV57, UV58, UV64 and UV66; also recorded: also recognized UV59 and UV60
Total of positive patients over peptides sharing at least 8 amino acids with the polypeptide ([3]; GV1001 (n=4) + DC (n=3) vaccinated patients): Total = 20
SUM of T-cell responses to peptides embedded in the polypeptide ([3]; Vaccination DC (n = 3)): 8
SUM of T-cell responses to peptides embedded in the polypeptide ([3]; Vaccination GV1001 (n = 4)): 12
SUM of T-cell responses to peptides embedded in the polypeptide ([3]; Vaccination GV1001 + DC (n = 4 + 3)): 20
